In patent US10426766B2, “Crystalline forms of an 8-azabicyclo[3.2.1]octane compound” (THERAVANCE BIOPHARMA R&D IP, LLC, priority 2007, dated 2019):
Counter-ions that a name gives are not always drawn.

What was measured:
human mu opioid receptor [1] = molecular target: T1, human mu opioid receptor (Homo sapiens, UniProt P35372); assay: Radioligand binding assay on human mu opioid receptor ([3H]-Diprenorphine displacement, CHO-K1 membranes); settings: [3H]-Diprenorphine at 0.5 nM
[2] = Solid state stability assessment; format: physicochemical; settings: for changes in DSC, TGA, XRPD results after storage: 4 weeks storage at elevated temperature and humidity
Experimental: Samples of the sulfate salt of the invention were stored in multiple open glass vials at 20° C. and 60% relative humidity (RH) and at 40° C. and 75% RH. At specific intervals, the contents of a representative vial was removed and analyzed by DSC, TGA, PXRD, and by HPLC for chemical purity. […] The chemical purity of the stored samples by HPLC was unchanged at 99.7%.

[3] = system: loperamide-induced delayed gastric emptying; assay: Rat gastric emptying assay (reversal of loperamide-induced delayed gastric emptying); format: in vivo; settings: administered orally, loperamide 1 mg/kg s.c.
Experimental: In this assay the efficacy of test compounds was evaluated in a model of gastrointestinal transit, which evaluates peripheral activity. This study was approved by the Institutional Animal Care and Use Committee at […]. and conformed to the Guide for the Care and Use of Laboratory Animals published by the National Academy of Sciences (©1996). Test compounds were evaluated in the rat gastric emptying assay to determine their ability to reverse loperamide-induced delayed gastric emptying. Rats were fasted up overnight prior to administration of test compounds or vehicle by intravenous, subcutaneous, intramuscular or oral routes of administration at doses ranging from 0.001 to about 30 milligrams/kilogram (mg/kg). The administration of test compound was followed by subcutaneous administration of loperamide at a dose of 1 mg/kg or vehicle. […] Gastric weight was then determined after removal of the ligatures. Data was analyzed using the GraphPad Prism Software package (GraphPad Software, Inc., San Diego, Calif.). Percent reversal curves were constructed by non-linear regression analysis using the sigmoidal dose response (variable slope) model and best-fit ID50 values were calculated. […]

[4] = Dynamic moisture sorption assessment; format: physicochemical
Experimental: Dynamic moisture sorption (DMS) assessment was performed at 25° C. using a VTI atmospheric microbalance, SGA-100 system (VTI Corp., Hialeah, Fla. 33016). […] A typical DMS analysis consisted of three scans: ambient to 2% relative humidity (RH), 2% RH to 90% RH, 90% RH to 5% RH at a scan rate of 5% RH/step. The mass was measured every two minutes and the RH was changed to the next value (±5% RH) when the mass of the sample was stable to within 0.02% for 5 consecutive points. Representative DMS traces for samples of a crystalline sulfate salt and of a crystalline hydrate of a sulfate salt of compound 1 are shown in FIGS. 3 and 6, respectively.

human mu opioid receptor [5] = molecular target: T1, human mu opioid receptor; assay: biochemical; settings: read-out: intrinsic activity (IA)
[6] = system: motility of the gastrointestinal (GI) tract; assay: Animal models of gastrointestinal motility; format: in vivo

T1 sequence (P35372 whole entry): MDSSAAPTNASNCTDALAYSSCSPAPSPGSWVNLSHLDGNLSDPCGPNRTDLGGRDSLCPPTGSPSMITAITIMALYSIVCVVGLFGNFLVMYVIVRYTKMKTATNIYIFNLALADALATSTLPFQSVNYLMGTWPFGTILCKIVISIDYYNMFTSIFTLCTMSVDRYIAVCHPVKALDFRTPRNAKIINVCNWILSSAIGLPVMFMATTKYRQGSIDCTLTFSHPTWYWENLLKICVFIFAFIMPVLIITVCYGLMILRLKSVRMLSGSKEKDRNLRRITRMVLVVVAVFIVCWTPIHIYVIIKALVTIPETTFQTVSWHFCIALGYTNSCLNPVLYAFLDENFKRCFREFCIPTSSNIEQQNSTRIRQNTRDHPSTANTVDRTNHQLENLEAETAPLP

SMILES	Ki (human mu opioid receptor [1]) [nM]	changes in DSC, TGA, XRPD results after storage ([2]; listed as crystalline sulfate salt of compound 1)	changes in DSC, TGA, XRPD results after storage ([2]; listed as sulfate salt of the invention)	chemical purity of the stored samples by HPLC ([2]; 4 weeks storage, open vials, 20° C./60% RH and 40° C./75% RH) [%]	chemical degradation by HPLC ([2]; storage for 4 weeks at 40° C. and 75% relative humidity)	ID50, dose required for 50% reversal of the effects of loperamide [3] [mg/kg]	weight change/gain on moisture sorption (hygroscopicity) ([4]; 2% to 90% relative humidity at room temperature)	deliquescence ([4]; up to about 90% relative humidity at room temperature)	Emax (human mu opioid receptor [5]) [%]	effect on motility of the gastrointestinal tract [6]
NC(=O)c1cccc(C2CC3CCC(C2)N3CCN(CC2CCCCC2)C(=O)[C@@H](O)CO)c1 (stereo partly drawn) [sulfate salt of compound 1, 3-endo-(8-{2-[cyclohexylmethyl-((S)-2,3-dihydroxy-propionyl)amino]ethyl}-8-aza-bicyclo[3.2.1]oct-3-yl)benzamide sulfate]	0.126	no detectable changes	no detectable change	99.7	no chemical degradation	0.26	less than 0.3%	neither the crystalline sulfate salt of the invention nor the hydrate thereof is deliquescent	-5	–
NC(=O)c1cccc(C2CC3CCC(C2)N3CCN(CC2CCCCC2)C(=O)[C@@H](O)CO)c1 (stereo partly drawn) [compound 1, 3-endo-(8-{2-[cyclohexylmethyl-((S)-2,3-dihydroxy-propionyl)amino]ethyl}-8-aza-bicyclo[3.2.1]oct-3-yl)benzamide]	–	–	–	–	–	–	–	–	–	increase motility of the gastrointestinal (GI) tract
